Test results as given in PubChem BioAssay AID1159605 (The Scripps Research Institute Molecular Screening Center, 2016).
Active and inactive are the calls of the source.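 The calls were made as follows: active = IC50 of 10 µM or lower; inactive = IC50 above 10 µM.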

Target: Mitogen-activated protein kinase kinase kinase 5 (Homo sapiens) (UniProt Q99683)
Assay: ASK1 kinase inhibitor potency, dose response, biochemical, AlphaScreen, MKK6 phosphorylation (AID 1159605);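 also: ASK1 phosphorylation of MKK6 substrate detected with anti-phospho-MKK6 antibody beads; inhibitors lower the luminescent signal by blocking MKK6 phosphorylation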
Details: AlphaScreen luminescence

Mitogen-activated protein kinase kinase kinase 5 (Homo sapiens), sequence (Q99683 whole entry, looked up): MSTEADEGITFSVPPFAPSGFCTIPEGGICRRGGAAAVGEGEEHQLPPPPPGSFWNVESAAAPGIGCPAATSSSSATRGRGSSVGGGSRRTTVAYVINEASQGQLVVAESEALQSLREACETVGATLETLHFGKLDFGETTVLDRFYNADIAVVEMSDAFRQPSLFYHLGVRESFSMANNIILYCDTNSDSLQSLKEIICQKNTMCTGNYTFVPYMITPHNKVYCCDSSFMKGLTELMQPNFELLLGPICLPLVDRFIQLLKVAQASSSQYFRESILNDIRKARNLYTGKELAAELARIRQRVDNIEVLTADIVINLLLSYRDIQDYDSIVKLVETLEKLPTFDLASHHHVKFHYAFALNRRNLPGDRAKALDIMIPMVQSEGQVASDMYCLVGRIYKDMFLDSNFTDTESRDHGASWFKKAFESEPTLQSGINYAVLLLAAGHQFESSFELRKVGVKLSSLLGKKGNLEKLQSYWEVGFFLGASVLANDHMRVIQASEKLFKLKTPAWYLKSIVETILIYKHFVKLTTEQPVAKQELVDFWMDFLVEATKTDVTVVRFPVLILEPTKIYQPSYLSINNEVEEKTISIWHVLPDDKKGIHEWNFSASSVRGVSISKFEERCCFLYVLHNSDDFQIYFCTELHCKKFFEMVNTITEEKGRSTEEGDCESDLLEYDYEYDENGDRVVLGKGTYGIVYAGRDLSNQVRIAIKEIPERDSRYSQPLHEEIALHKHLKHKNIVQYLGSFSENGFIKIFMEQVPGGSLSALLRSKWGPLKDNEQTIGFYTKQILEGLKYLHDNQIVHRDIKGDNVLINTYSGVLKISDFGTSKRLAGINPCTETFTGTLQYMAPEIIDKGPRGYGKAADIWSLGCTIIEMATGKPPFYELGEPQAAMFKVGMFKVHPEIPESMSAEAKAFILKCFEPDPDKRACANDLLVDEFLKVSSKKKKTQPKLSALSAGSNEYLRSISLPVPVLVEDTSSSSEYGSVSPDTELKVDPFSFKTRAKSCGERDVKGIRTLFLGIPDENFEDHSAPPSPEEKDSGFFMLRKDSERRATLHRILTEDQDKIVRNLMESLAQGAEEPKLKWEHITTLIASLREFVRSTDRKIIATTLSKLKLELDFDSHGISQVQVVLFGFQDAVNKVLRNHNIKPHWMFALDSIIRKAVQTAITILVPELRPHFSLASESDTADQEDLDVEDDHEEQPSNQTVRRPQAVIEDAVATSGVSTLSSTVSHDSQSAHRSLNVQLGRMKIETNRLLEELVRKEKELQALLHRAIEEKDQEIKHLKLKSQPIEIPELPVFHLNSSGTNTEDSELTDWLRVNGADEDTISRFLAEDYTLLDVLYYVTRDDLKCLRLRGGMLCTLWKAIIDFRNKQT

Structure (SMILES) | IC50
c1ccc(CCn2ncc(-c3ccnc(Nc4ccc(N5CCOCC5)cc4)c3)c2Nc2ccccc2)cc1 | > 19.2 µM (inactive)
CC(=O)c1cccc(-c2nc(NCc3ccccc3)c3ncn(Cc4ccc(C(F)(F)F)cc4)c3n2)c1 | > 19.2 µM (inactive)
FC(F)(F)c1ccc(Cn2cnc3c(NCc4ccccc4)nc(Nc4ccccc4)nc32)cc1 | > 20.1 µM (inactive)
Cc1cc(NCCOc2ccccc2)nc(Nc2cccc(N(C)C)c2)n1 | 6.99 µM
COc1ccc2c(c1)CC(C(=O)Nc1ccc(-c3cn[nH]c3)cc1OCCOCc1ccccc1)CO2 (stereo not given) | > 19.2 µM (inactive)
Nc1cc(C2=C3C=CN=C3C(=O)NCC2)c(O)[nH]1 | > 19.2 µM (inactive)
COc1cc2nc(Nc3ccc4ncccc4c3)nc(Nc3ccc(NC(C)=O)cc3)c2cc1OC | > 20 µM (inactive)
CC(C)n1cnc2c(NC3CCN(Cc4ccccc4)CC3)nc(Nc3cccc(N(C)C)c3)nc21 | > 21.5 µM (inactive)
COc1cc2nc(Nc3nccc4ccccc34)nc(Nc3ccc(NC(C)=O)cc3)c2cc1OC | inactive
COc1cc(Nc2nc(N3CCc4ccccc4C3)nc3c2ncn3C(C)C)cc(OC)c1OC | > 20.1 µM (inactive)
Cc1ccc(-c2ncn(-c3ccc(Nc4nccc(-c5cncc6ccccc56)n4)cc3)n2)cn1 | > 19.2 µM (inactive)
CC(C)n1cnc2c(NCc3cccc(C(F)(F)F)c3)nc(N3CCN(Cc4ccc5c(c4)OCO5)CC3)nc21 | 8.82 µM
O=c1[nH]cccc1-c1ccc(Nc2nccc(-c3ccc4nc(C5CC5)[nH]c(=O)c4c3)n2)cc1 | > 19.2 µM (inactive)
COc1cc2nc(Nc3cccc(N(C)C)c3)nc(NCCOc3ccccc3)c2cc1OC | > 20.4 µM (inactive)
CN(C)c1cccc(Nc2cc(Nc3ccccc3)ncn2)c1 | > 22.2 µM (inactive)
Cc1cccc(Nc2ccc3c(cnn3-c3cccc(C(=O)NCCN4CCNCC4)c3)c2)c1Cl | > 19.2 µM (inactive)
CC(C)NC(=O)c1cccc(NC(=O)Nc2ccc(-c3ccnc4[nH]ccc34)cc2)c1 | > 19.2 µM (inactive)
COc1cc(Nc2nc(N3CCc4ccccc4C3)nc3c2ncn3-c2ccccc2)cc(OC)c1OC | inactive
COc1ccc(CCNc2cc(C)nc(Nc3cccc(N(C)C)c3)n2)cc1 | 6.67 µM
Cc1cc(Nc2ccc(N3CCOCC3)cc2)nc(N2CCc3ccccc3C2)n1 | inactive
COc1ccc(-c2nc3ncnc(Nc4cc(OC)c(OC)c(OC)c4)c3[nH]2)cn1 | > 18.1 µM (inactive)
CN(C)c1cccc(Nc2ccc(-n3cc(CC(=O)Nc4ccc(N5CCOCC5)cc4)c4ccccc43)nn2)c1 | > 20.1 µM (inactive)

Structure (SMILES) | IC50
FC(F)(F)c1ccc(Cn2cnc3c(NCc4ccccc4)nc(-c4ccc(N5CCOCC5)nc4)nc32)cc1 | > 19.9 µM (inactive)
Cc1ccc(-c2cccc3cnc(Nc4ccc(-n5cnc(C)n5)cc4)nc23)cn1 | > 19.2 µM (inactive)
COc1cc2nc(Nc3cccc(N(C)C)c3)nc(NC3CC3)c2cc1OC | inactive
CN(C)c1cc(F)cc(-c2ccnc(Nc3ccc(-n4cnc(N5CCC(O)CC5)n4)cc3)n2)c1 | > 19.2 µM (inactive)
COc1cc2nc(Nc3cccc(N(C)C)c3)nc(Nc3ccccc3)c2cc1OC | inactive
c1ccc(OCCNc2nc(N3CCN(Cc4ccc5c(c4)OCO5)CC3)nc3c2ncn3C2CCCCC2)cc1 | inactive
c1ccc(CCn2nc(-c3ccnc(Nc4ccc(N5CCOCC5)cc4)c3)cc2Nc2ccccc2)cc1 | > 19.2 µM (inactive)
COc1cc(Nc2nc(-c3c(C)noc3C)nc3c2ncn3Cc2ccc(C(F)(F)F)cc2)cc(OC)c1OC | > 27.5 µM (inactive)
Cc1nc(C)n(-c2ccc(Nc3nccc(-c4cccc(-n5cncn5)c4)n3)cc2)n1 | > 19.2 µM (inactive)
COc1ccc2c(c1)CC(C(=O)Nc1ccc(-c3cn[nH]c3)cc1OCCN(Cc1ccccc1)Cc1ccccc1)CO2 (stereo not given) | > 19.2 µM (inactive)
Cc1nc(C)n(-c2ccc(Nc3nccc(-c4cc(F)cc(-c5ncco5)c4)n3)cc2)n1 | > 19.2 µM (inactive)
CN1CCN(c2nc(C3COc4ccccc4O3)nc3ccc(-c4cn[nH]c4)cc23)CC1 (stereo not given) | > 19.2 µM (inactive)
CC(C)CNC(=O)c1ccc2c(c1)CC(c1nc3ncc(-c4ccnc(N)n4)cc3[nH]1)CO2 (stereo not given) | > 19.2 µM (inactive)
COc1cc(Nc2nc(-c3ccc(C(N)=O)cc3)nc3c2ncn3C2CCCCC2)cc(OC)c1OC | inactive
O=C(Nc1ccc(-c2ncnc3[nH]ccc23)cc1)C1COc2ccccc2O1 (stereo not given) | > 19.2 µM (inactive)
c1ccc(CN2CCC(Nc3nc(N4CCN(Cc5ccc6c(c5)OCO6)CC4)nc4c3ncn4C3CCCCC3)CC2)cc1 | inactive
CN(C)c1cccc(Nc2nc(NCCc3ccc(O)cc3)c3ncn(C4CCCCC4)c3n2)c1 | > 20 µM (inactive)
Cc1ncn(-c2ccc(Nc3nccc(-c4cc(F)cc(-c5cn[nH]c5C)c4)n3)cc2)n1 | > 19.2 µM (inactive)
COc1ccc(CCNc2nc(Nc3cccc(N(C)C)c3)nc3c2ncn3C(C)C)cc1 | > 20 µM (inactive)
Cn1cc(-c2ccc3cnc(Nc4ccc(-c5ccc(N6CCOCC6)nc5)cc4)nc3c2Cl)cn1 | > 19.2 µM (inactive)
FC(F)(F)c1cccc(CNc2nc(N3CCN(c4ccccn4)CC3)nc3c2ncn3-c2ccsc2)c1 | > 20 µM (inactive)

Now from value to molecule:

IC50 | Structure (SMILES)
> 19.9 µM (inactive) | CC(C)n1cnc2c(Nc3ccc4c(c3)OCO4)nc(Nc3cccc(N(C)C)c3)nc21
inactive | c1cc(-n2cnc3c(Nc4ccc(N5CCOCC5)cc4)nc(N4CCN(Cc5ccc6c(c5)OCO6)CC4)nc32)cs1
9.53 µM | COc1ccc(CCNc2nc(Nc3ccc(N4CCOCC4)cc3)nc3c2ncn3-c2ccsc2)cc1
> 21.8 µM (inactive) | c1ccc2c(-c3nccc(Nc4ccc(N5CCOCC5)cc4)n3)csc2c1
5.72 µM | c1cc(-n2cnc3c(Nc4ccc5c(c4)OCO5)nc(Nc4ccc(N5CCOCC5)cc4)nc32)cs1
inactive | c1cc(-n2cnc3c(NC4CC4)nc(Nc4ccc(N5CCOCC5)cc4)nc32)cs1
inactive | COc1cc(Nc2nc(Nc3ccc(N4CCOCC4)cc3)c3ncn(Cc4ccc(C(F)(F)F)cc4)c3n2)cc(OC)c1OC
inactive | c1ccc2c(c1)CCN(c1nccc(Nc3ccc(N4CCOCC4)cc3)n1)C2
inactive | COc1cc2nc(Nc3ccc(N4CCOCC4)cc3)nc(NCCOc3ccccc3)c2cc1OC
5.3 µM | COc1ccc(CCNc2nc(Nc3ccc(N4CCOCC4)cc3)nc3c2ncn3Cc2ccc(C(F)(F)F)cc2)cc1
> 20 µM (inactive) | Cn1ccc2cc(-c3cc(Nc4ccc(N5CCOCC5)cc4)nc(N)n3)ccc21
inactive | Cc1cc(Nc2ccc3c(c2)OCO3)nc(Nc2ccc(N3CCOCC3)cc2)n1
> 20.5 µM (inactive) | FC(F)(F)c1ccc(Cn2cnc3c(Nc4ccc5c(c4)OCO5)nc(NC4CCN(Cc5ccccc5)CC4)nc32)cc1
inactive | Cc1cc(NC2CCN(Cc3ccccc3)CC2)nc(Nc2ccc(N3CCOCC3)cc2)n1
> 21.8 µM (inactive) | Cc1cnc(Nc2nc3ccccc3n2C)nc1Nc1ccc(N2CCOCC2)cc1
> 18.2 µM (inactive) | Nc1cccc(-c2nc3ncnc(Nc4ccc(N5CCOCC5)cc4)c3[nH]2)c1
> 20 µM (inactive) | CC(C)n1cnc2c(Nc3ccc4c(c3)OCO4)nc(Nc3ccc(N4CCOCC4)cc3)nc21
5.42 µM | CC(C)n1cnc2c(NCc3cccc(C(F)(F)F)c3)nc(Nc3ccc(N4CCOCC4)cc3)nc21
inactive | Cc1cnc(-c2cccc(N)c2)nc1Nc1ccc(N2CCOCC2)cc1
> 20.1 µM (inactive) | Cc1cnc(-c2csc3ccccc23)nc1Nc1ccc(N2CCOCC2)cc1
inactive | FC(F)(F)c1ccc(Cn2cnc3c(Nc4ccc(N5CCOCC5)cc4)nc(N4CCN(Cc5ccc6c(c5)OCO6)CC4)nc32)cc1

IC50 | Structure (SMILES)
8.21 µM | Nc1nc(Nc2ccc(N3CCOCC3)cc2)cc(-c2ccc3[nH]ccc3c2)n1
> 19.2 µM (inactive) | Cc1ccc(-c2ncn(-c3ccc(Nc4nccc(-c5cncc(N6CCOCC6)c5)n4)cc3)n2)cn1
> 24 µM (inactive) | COc1cc2nc(Nc3ccccc3)nc(Nc3ccc(N4CCOCC4)cc3)c2cc1OC
inactive | COc1cc2nc(Nc3ccc(N4CCOCC4)cc3)nc(Nc3ccc4c(c3)OCO4)c2cc1OC
> 22 µM (inactive) | FC(F)(F)c1ccc(Cn2cnc3c(Nc4ccc5c(c4)OCO5)nc(Nc4ccccc4)nc32)cc1
inactive | CC(C)n1cnc2c(Nc3ccccc3)nc(Nc3ccc(N4CCOCC4)cc3)nc21
> 20.1 µM (inactive) | COc1cc2nc(Nc3ccc(N4CCOCC4)cc3)nc(Nc3ccccc3)c2cc1OC
> 19.7 µM (inactive) | c1ccc(CN2CCC(Nc3nc(Nc4ccc(N5CCOCC5)cc4)nc4nc[nH]c34)CC2)cc1
> 20 µM (inactive) | COc1cc2nc(Nc3ccc(-n4ccnc4)cc3)nc(Nc3ccc4c(c3)OCO4)c2cc1OC
> 16.8 µM (inactive) | Nc1nc(Nc2ccc(N3CCOCC3)cc2)cc(Nc2ccc3c(c2)OCO3)n1
inactive | FC(F)(F)c1ccc(Cn2cnc3c(NC4CCN(Cc5ccccc5)CC4)nc(Nc4ccc(N5CCOCC5)cc4)nc32)cc1
> 19.9 µM (inactive) | c1cc(-n2cnc3c(Nc4ccc(N5CCOCC5)cc4)nc(NCc4ccc5c(c4)OCO5)nc32)cs1
> 17.5 µM (inactive) | COc1cc2nc(Nc3ccc(N4CCOCC4)cc3)nc(Nc3ccc(OCCN4CCCCC4)cc3)c2cc1OC
inactive | CN(C)c1cccc(Nc2nc(Nc3ccc(N4CCOCC4)cc3)c3[nH]cnc3n2)c1
inactive | COc1cc2nc(Nc3ccncc3)nc(Nc3ccc(N4CCOCC4)cc3)c2cc1OC
> 19.9 µM (inactive) | COc1cc2nc(Nc3cccc(N(C)C)c3)nc(Nc3ccc(N4CCOCC4)cc3)c2cc1OC
inactive | CC(C)n1cnc2c(Nc3ccc4c(c3)OCO4)nc(NCc3ccc4c(c3)OCO4)nc21
inactive | c1ccc(-n2cnc3c(NCc4cccnc4)nc(Nc4ccc(N5CCOCC5)cc4)nc32)cc1
> 20.1 µM (inactive) | FC(F)(F)c1cccc(CNc2nc(N3CCN(Cc4ccc5c(c4)OCO5)CC3)nc3c2ncn3-c2ccccc2)c1
> 19.9 µM (inactive) | Cc1cc(Nc2ccc(N3CCOCC3)cc2)nc(Nc2cccc(N(C)C)c2)n1
> 19.2 µM (inactive) | COc1c(-c2cnn(C)c2)ccc2cnc(Nc3ccc(-n4cnc(N5CCOCC5)n4)cc3)nc12
